Test results published in patent US6232503A, “Alkynyl aryl sulfones” (Lonza Inc., priority 1999, dated 2001).
≈ marks a conversion by molar mass, not a printed value.

How the values were obtained:
Type in all cases: cell-based
Staphylococcus aureus = assay: Zone of inhibition assay, 24 hour minimum inhibitory concentration, Staphylococcus aureus; conditions: Day-Engley neutralizing media
Method: (§1) The minimum inhibitory concentrations of ethynyl 4-methylbenzene sulfone, available from Aldrich Chemical Co., and the sulfones prepared in Examples 1-15 were determined against the bacteria Burkholderia cepacia and Staphylococcus aureus by the zone of inhibition assay method common in the art. Burkholderia cepacia and Staphylococcus aureus was contacted with each sulfone for 24 hours in a Day-Engley neutralizing media (Difco Manual, 10th Ed., p. 261-263 (1984). The results are shown in Table 1.

Aspergillus niger = assay: Zone of inhibition assay, 5 day minimum inhibitory concentration, Aspergillus niger; conditions: ATCC16404, 120 h; Aspergillus niger ATCC #16404; 5 days; Day-Engley neutralizing media
Method: The minimum inhibitory concentrations of ethynyl 4-methylbenzene sulfone and the sulfones prepared in Examples 1-15 were determined against the fungi Aspergillus niger by the zone of inhibition assay method common in the art. A. niger ATCC #16404 was contacted with each sulfone for 5 days in a Day-Engley neutralizing media.

Burkholderia cepacia = assay: Zone of inhibition assay, 24 hour minimum inhibitory concentration, Burkholderia cepacia; conditions: Day-Engley neutralizing media
Method: as §1

Structure (SMILES) | MIC (Staphylococcus aureus) [mg/L] | MIC (Aspergillus niger) [mg/L] | MIC (Burkholderia cepacia) [mg/L]
C#CS(=O)(=O)c1ccc(C(C)(C)C)cc1 [Ethynyl 4-t-Butylbenzene Sulfone, Ethynyl 4-t-butylbenzene sulfone] | 30 to 100 (≈ 135 to 450 µM) | > 10000 | > 1000
C#CS(=O)(=O)c1ccc(C)cc1 [Ethynyl 4-Methylbenzene Sulfone, ethynyl 4-methylbenzene sulfone, reference compound] | 3 to 10 (≈ 16.6 to 55.5 µM) | 3000 to 10000 (≈ 16600 to 55500 µM) | 100 to 300 (≈ 555 to 1660 µM)
C#CS(=O)(=O)c1ccc(OC(F)(F)F)cc1 [Ethynyl 4-trifluoromethoxybenzene sulfone] | 3 to 10 (≈ 12 to 40 µM) | > 10000 | > 1000
C#CS(=O)(=O)c1ccc(OC)c(OC)c1 [Ethynyl 3,4-Dimethoxybenzene Sulfone, Ethynyl 3,4-dimethoxybenzene sulfone] | 10 to 30 (≈ 44.2 to 133 µM) | > 10000 | > 1000
C#CS(=O)(=O)c1c(C)cc(C)cc1C [Ethynyl 2,4,6-Trimethylbenzene Sulfone, Ethynyl 2,4,6-trimethylbenzene sulfone] | 300 to 1000 (≈ 1440 to 4800 µM) | 3000 to 10000 (≈ 14400 to 48000 µM) | 300 to 1000 (≈ 1440 to 4800 µM)
C#CS(=O)(=O)c1ccc(OC)cc1 [Ethynyl 4-Methoxybenzene Sulfone, ethynyl 4-methoxybenzene sulfone] | 1 to 3 (≈ 5.1 to 15.3 µM) | 1000 to 3000 (≈ 5100 to 15300 µM) | 30 to 100 (≈ 153 to 510 µM)
C#CS(=O)(=O)c1ccc(CC)cc1 [Ethynyl 4-Ethylbenzene Sulfone] | 3 to 10 (≈ 15.4 to 51.5 µM) | 3000 to 10000 (≈ 15400 to 51500 µM) | 300 to 1000 (≈ 1540 to 5150 µM)

Second part, the compound after the results:

MIC (Staphylococcus aureus) [mg/L] | MIC (Aspergillus niger) [mg/L] | MIC (Burkholderia cepacia) [mg/L] | Structure (SMILES)
0.3 to 1 (≈ 0.798 to 2.66 µM) | 30 to 100 (≈ 79.8 to 266 µM) | 100 to 300 (≈ 266 to 798 µM) | O=S(=O)(C#CI)c1ccc(OC(F)(F)F)cc1 [Iodoethynyl 4-trifluoromethoxybenzene sulfone]
0.3 to 1 (≈ 1.03 to 3.42 µM) | 300 to 1000 (≈ 1030 to 3420 µM) | 3 to 10 (≈ 10.3 to 34.2 µM) | O=S(=O)(C#CI)c1ccccc1 [Iodoethynyl Benzene Sulfone, Iodoethynyl benzene sulfone]
0.3 to 1 (≈ 0.937 to 3.12 µM) | 10 to 30 (≈ 31.2 to 93.7 µM) | 100 to 300 (≈ 312 to 937 µM) | CCc1ccc(S(=O)(=O)C#CI)cc1 [Iodoethynyl 4-Ethylbenzene Sulfone, Iodoethynyl 4-ethylbenzene sulfone]
1 to 3 (≈ 6.02 to 18.1 µM) | 1000 to 3000 (≈ 6020 to 18100 µM) | 10 to 30 (≈ 60.2 to 181 µM) | C#CS(=O)(=O)c1ccccc1 [Ethynyl Benzene Sulfone, Ethynyl benzene sulfone]
1 to 3 (≈ 2.87 to 8.62 µM) | 100 to 300 (≈ 287 to 862 µM) | 300 to 1000 (≈ 862 to 2870 µM) | CC(C)(C)c1ccc(S(=O)(=O)C#CI)cc1 [Iodoethynyl 4-t-Butylbenzene Sulfone, Iodoethynyl 4-t-butylbenzene sulfone]
3 to 10 (≈ 9.31 to 31 µM) | 30 to 100 (≈ 93.1 to 310 µM) | 30 to 100 (≈ 93.1 to 310 µM) | COc1ccc(S(=O)(=O)C#CI)cc1 [Iodoethynyl 4-Methoxybenzene Sulfone, iodoethynyl 4-methoxybenzene sulfone]
0.3 to 1 (≈ 0.98 to 3.27 µM) | 100 to 300 (≈ 327 to 980 µM) | 0.3 to 1 (≈ 0.98 to 3.27 µM) | Cc1ccc(S(=O)(=O)C#CI)cc1 [Iodoethynyl 4-Methylbenzene Sulfone, Iodoethynyl 4-methylbenzene sulfone]
30 to 100 (≈ 85.2 to 284 µM) | 300 to 1000 (≈ 852 to 2840 µM) | 300 to 1000 (≈ 852 to 2840 µM) | COc1ccc(S(=O)(=O)C#CI)cc1OC [Iodoethynyl 3,4-Dimethoxybenzene Sulfone, Iodoethynyl 3,4-dimethoxybenzene sulfone]
100 to 300 (≈ 299 to 898 µM) | 100 to 300 (≈ 299 to 898 µM) | 300 to 1000 (≈ 898 to 2990 µM) | Cc1cc(C)c(S(=O)(=O)C#CI)c(C)c1 [Iodoethynyl 2,4,6-trimethylbenzene sulfone]
